These results are taken from ChEMBL document CHEMBL3400001, “Tricyclic 1,5-naphthyridinone oxabicyclooctane-linked novel bacterial topoisomerase inhibitors as broad-spectrum antibacterial agents-SAR of left-hand-side moiety (Part-2)” (Bioorg Med Chem Lett, 2015).

SMILES strings stand for the structures. Converted amounts (≈) assume the structure as drawn. The source made the active and inactive calls. The calls are words filed in the database; no cut-off is given here. Where only a bound is given, the exact number is not on record here.

One data set concerns Acinetobacter baumannii. Kind of data set: Antimicrobial activity against Acinetobacter baumannii IID876 by micro broth dilution or agar based method. Type of data set: functional. (In general: Broth dilution looks for growth in wells or tubes with falling amounts of substance.)
A further data set deals with Enterococcus faecium. Kind of data set: Antimicrobial activity against vancomycin-resistant Enterococcus faecium A2373 expressing VanA by micro broth dilution or agar based method. Type of data set: functional.
The subject of the next data set is Escherichia coli. Put plainly: Antimicrobial activity against Escherichia coli ATCC 25922 by micro broth dilution or agar based method. The data set is classed as functional.
Data set [1] has as its system Staphylococcus aureus. Put plainly: Antimicrobial activity against Staphylococcus aureus infected in mouse model of bacteremia at 50 mg/kg, po. Type of data set: functional, organism-based. On the set-up: dose 50 mg/kg.
In a further data set the test system is Streptococcus pneumoniae. Put plainly: Antimicrobial activity against Streptococcus pneumoniae IID554 by micro broth dilution or agar based method. Type of data set: functional.
The subject of data set [2] is Staphylococcus aureus. Kind of data set: Antimicrobial activity against Staphylococcus aureus Smith by micro broth dilution or agar based method. Type of data set: functional.
The test system of data set [3] is Staphylococcus aureus. Kind of data set: Antimicrobial activity against Staphylococcus aureus infected in mouse model of bacteremia at 50 mg/kg, iv. The data set is classed as functional, organism-based. On the set-up: dose 50 mg/kg.
The test system of the next data set is Pseudomonas aeruginosa. Kind of data set: Antimicrobial activity against Pseudomonas aeruginosa PAO1 by micro broth dilution or agar based method. The data set is classed as functional.
The next data set has as its system Enterococcus faecalis. Kind of data set: Antimicrobial activity against Enterococcus faecalis ATCC 29212 MB by micro broth dilution or agar based method. Type of data set: functional.
Data set [4] deals with Staphylococcus aureus. Kind of data set: Antimicrobial activity against quinolone-sensitive Staphylococcus aureus MS5935.
In data set [5] the test system is Staphylococcus aureus. Put plainly: Antimicrobial activity against quinolone-resistant Staphylococcus aureus MS5935. The data set is classed as functional.
Data set [6] deals with Staphylococcus aureus. Kind of data set: Ratio of MIC for quinolone-resistant Staphylococcus aureus MS5935 to MIC for quinolone-[…]. The data set is classed as functional.
The target of data set [7] is T1, Voltage-gated inwardly rectifying potassium channel KCNH2 (Homo sapiens, UniProt Q12809). Put plainly: Inhibition of human ERG by MK499 binding assay.
The target of data set [8] is T1, Voltage-gated inwardly rectifying potassium channel KCNH2. Kind of data set: Inhibition of human ERG expressed in CHO cells by Patch express assay. The data set is classed as cell-based.
The next data set concerns Haemophilus influenzae. Put plainly: Antimicrobial activity against Haemophilus influenzae ATCC 49247 by micro broth dilution or agar based method. Type of data set: functional.
The next data set concerns Moraxella catarrhalis. Put plainly: Antimicrobial activity against Moraxella catarrhalis ATCC 25238 by micro broth dilution or agar based method. Type of data set: functional.
Data set [9] is described as follows: Oral bioavailability in C57BL/6 mouse at 2 mg/kg. The data set is classed as ADME, organism-based. The settings on record: in vivo.
Data set [10] relates to Staphylococcus aureus. Kind of data set: Antimicrobial activity against Staphylococcus aureus infected in intravenously dosed mouse model of bacteremia. The settings on record: iv. Type of data set: functional.
Data set [11] in a line: Plasma clearance in C57BL/6 mouse at 1 mg/kg, iv or 2 mg/kg, po. The data set is classed as ADME, organism-based.
Data set [12] in a line: Volume of distribution at steady state in C57BL/6 mouse at 1 mg/kg, iv or 2 mg/kg, po. The settings on record: in vivo, read-out: Vdss. Type of data set: ADME, organism-based.
Data set [13] relates to Staphylococcus aureus. Put plainly: Antimicrobial activity against Staphylococcus aureus infected in orally dosed mouse model of bacteremia. Type of data set: functional. The conditions noted are these: po.
Data set [14] in a line: Half life in C57BL/6 mouse at 1 mg/kg, iv or 2 mg/kg, po. The data set is classed as ADME, organism-based. The conditions noted are these: in vivo.
Data set [15] can be described thus: AUC in C57BL/6 mouse at 1 mg/kg, iv. On the set-up: dose 1 mg/kg, route intravenous. The settings on record: plasma. The data set is classed as ADME, organism-based.
Setting [16] is: Acinetobacter baumannii, IID876, read-out: MIC.
Setting [17] is: Enterococcus faecium, A2373, read-out: MIC.
The mark [18] stands for this setting: Escherichia coli, ATCC 25922, read-out: MIC.
The mark [19] stands for this setting: Streptococcus pneumoniae, IID554, read-out: MIC.
The mark [20] stands for this setting: Staphylococcus aureus, Smith, read-out: MIC.
Where [21] appears, read: Pseudomonas aeruginosa, PAO1, read-out: MIC.
[22] abbreviates: Enterococcus faecalis, ATCC 29212 MB, read-out: MIC.

T1 sequence (Q12809 whole entry): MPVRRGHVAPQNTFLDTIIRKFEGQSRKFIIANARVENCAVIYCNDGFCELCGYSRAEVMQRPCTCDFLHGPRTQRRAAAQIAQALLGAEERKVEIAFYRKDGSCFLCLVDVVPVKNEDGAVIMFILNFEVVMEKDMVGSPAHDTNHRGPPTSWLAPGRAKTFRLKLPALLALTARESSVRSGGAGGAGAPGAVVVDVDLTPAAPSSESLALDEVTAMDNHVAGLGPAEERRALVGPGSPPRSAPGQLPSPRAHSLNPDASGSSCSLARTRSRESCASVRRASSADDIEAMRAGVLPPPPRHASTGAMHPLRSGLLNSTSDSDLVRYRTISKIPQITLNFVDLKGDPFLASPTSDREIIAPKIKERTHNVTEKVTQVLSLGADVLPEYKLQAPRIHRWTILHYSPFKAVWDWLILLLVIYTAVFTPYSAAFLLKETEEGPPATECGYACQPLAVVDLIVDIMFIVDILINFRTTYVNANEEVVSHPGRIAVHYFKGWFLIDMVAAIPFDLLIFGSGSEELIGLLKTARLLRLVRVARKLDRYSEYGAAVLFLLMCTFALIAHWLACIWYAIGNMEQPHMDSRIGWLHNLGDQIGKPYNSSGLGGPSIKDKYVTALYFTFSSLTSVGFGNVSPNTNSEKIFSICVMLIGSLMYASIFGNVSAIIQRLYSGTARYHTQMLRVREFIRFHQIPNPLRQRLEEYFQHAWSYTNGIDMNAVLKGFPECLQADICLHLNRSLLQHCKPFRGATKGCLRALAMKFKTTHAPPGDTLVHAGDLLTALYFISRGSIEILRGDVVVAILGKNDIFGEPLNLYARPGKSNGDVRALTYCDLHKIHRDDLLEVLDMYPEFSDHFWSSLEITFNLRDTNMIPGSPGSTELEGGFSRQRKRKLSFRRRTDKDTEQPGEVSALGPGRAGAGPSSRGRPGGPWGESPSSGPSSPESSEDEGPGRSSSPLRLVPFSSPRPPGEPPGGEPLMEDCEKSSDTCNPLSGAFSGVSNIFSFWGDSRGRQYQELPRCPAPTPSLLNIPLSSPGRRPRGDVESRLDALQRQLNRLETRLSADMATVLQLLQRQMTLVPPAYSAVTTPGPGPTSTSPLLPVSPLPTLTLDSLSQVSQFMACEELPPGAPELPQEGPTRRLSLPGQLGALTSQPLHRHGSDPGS

As to `O=C1COc2ccc(CNC34CCC(C[C@@]5(O)Cn6c(=O)ccc7ncc(F)c5c76)(CC3)OC4)nc2N1`, the MIC is 32 µg/mL (≈ 63.1 µM) in the data set on Acinetobacter baumannii (setting [16]); 32 µg/mL (≈ 63.1 µM) in the data set with Enterococcus faecium (setting [17]); 16 µg/mL (≈ 31.5 µM) in the data set with Escherichia coli (setting [18]); 4 µg/mL (≈ 7.88 µM) in the data set with Streptococcus pneumoniae (setting [19]); 2 µg/mL (≈ 3.94 µM) with Staphylococcus aureus [2] (setting [20]); 32 µg/mL (≈ 63.1 µM) in the data set on Pseudomonas aeruginosa (setting [21]). In addition, the MIC in the data set on Enterococcus faecalis (setting [22]) was 8 µg/mL (≈ 15.8 µM). Further, the outcome in the data set on Staphylococcus aureus [1] and in the data set on Staphylococcus aureus [3] was inactive.

`C[C@H]1COc2c(N3CCN(C)CC3)c(F)cc3c(=O)c(C(=O)O)cn1c23.C[C@H]1COc2c(N3CCN(C)CC3)c(F)cc3c(=O)c(C(=O)O)cn1c23.O` [LEVOFLOXACIN]: the MIC with Staphylococcus aureus [4] was 0.25 µg/mL; in the data set on Staphylococcus aureus [5], above 16 µg/mL. Further, the Ratio with Staphylococcus aureus [6] is below 4.

Regarding `O=C1COc2ccc(CNC34CCC(CC5Cn6c(=O)ccc7ncc(F)c5c76)(CC3)OC4)nc2N1` (stereo in doubt; 10), the MIC with Acinetobacter baumannii came to 8 µg/mL (≈ 16.3 µM); in the data set on Enterococcus faecium, 4 µg/mL (≈ 8.14 µM); against Escherichia coli, 2 µg/mL (≈ 4.07 µM); against Streptococcus pneumoniae, 0.5 µg/mL (≈ 1.02 µM); against Staphylococcus aureus [2] it was 0.5 µg/mL (≈ 1.02 µM); in the data set on Pseudomonas aeruginosa, 16 µg/mL (≈ 32.6 µM). The compound also gave an MIC in the data set on Enterococcus faecalis of 2 µg/mL (≈ 4.07 µM). Also, the IC50 in data set [7] is 12.3 µM; in data set [8], 21.6 µM.

Regarding `O=C1COc2ccc(CNC34CCC(CC5Cn6c(=O)ccc7ncc(F)c5c76)(CC3)OC4)nc2N1` (racemic), the MIC with Escherichia coli was determined as 1 µg/mL (≈ 2.03 µM); in the data set with Streptococcus pneumoniae (setting [19]), 0.25 µg/mL (≈ 0.509 µM); with Staphylococcus aureus [2] it was 0.12 µg/mL (≈ 0.244 µM); with Pseudomonas aeruginosa, 8 µg/mL (≈ 16.3 µM). Further, the IC50 in data set [7] turned out to be 23 µM; in data set [8], 30 µM.

`O=C1COc2ccc(CNC34CCC(C[C@]5(O)Cn6c(=O)ccc7ncc(F)c5c76)(CC3)OC4)nc2N1`: the MIC is 1 µg/mL (≈ 1.97 µM) with Haemophilus influenzae; 2 µg/mL (≈ 3.94 µM) in the data set on Acinetobacter baumannii (setting [16]); 8 µg/mL (≈ 15.8 µM) in the data set on Enterococcus faecium (setting [17]); 4 µg/mL (≈ 7.88 µM) with Escherichia coli (setting [18]); 0.25 µg/mL (≈ 0.493 µM) in the data set on Moraxella catarrhalis; 0.25 µg/mL (≈ 0.493 µM) in the data set on Streptococcus pneumoniae (setting [19]). For the same compound, the MIC in the data set on Staphylococcus aureus [2] (setting [20]) stood at 0.25 µg/mL (≈ 0.493 µM); in the data set on Pseudomonas aeruginosa (setting [21]) it was 16 µg/mL (≈ 31.5 µM); in the data set with Enterococcus faecalis (setting [22]) it was 4 µg/mL (≈ 7.88 µM). The bioavailability in data set [9] turned out to be 40%. Besides, the ED50 in the data set with Staphylococcus aureus [10] is below 3.2 mg/kg; in the data set on Staphylococcus aureus [13], 27 mg/kg. Also, the clearance in [11] came to 65 mL/min/kg. In addition, in data set [12], the Vd came to 11.8 L/kg. Also, the half-life in data set [14] was 4 h. The compound further gave an AUC in [15] of 0.45 µM·h.

As to `O=C1COc2ccc(CNC34CCC(CC5Cn6c(=O)ccc7ncc(F)c5c76)(CC3)OC4)nc2N1` (stereo in doubt; 9), the MIC in the data set on Acinetobacter baumannii is 0.5 µg/mL (≈ 1.02 µM); in the data set on Enterococcus faecium, 1 µg/mL (≈ 2.03 µM); in the data set with Escherichia coli (setting [18]), 1 µg/mL (≈ 2.03 µM); with Streptococcus pneumoniae it was 0.25 µg/mL (≈ 0.509 µM); in the data set on Pseudomonas aeruginosa (setting [21]), 16 µg/mL (≈ 32.6 µM); against Enterococcus faecalis it was 0.5 µg/mL (≈ 1.02 µM). For the same compound, the IC50 in data set [7] worked out at 15.2 µM; in data set [8], 15.8 µM. Also, the Ratio with Staphylococcus aureus [6] is recorded as below 4.

As a reminder, the IC50 is the concentration at which inhibition is half-maximal. Read a low IC50 as inhibition by little substance. One may read the bioavailability as the share of a dose that reaches the circulation, judged against a reference dose that is usually intravenous. Read a high bioavailability as good availability. A word on the ED50: it is the dose that gives a 50% effect, or the effect in half of the subjects. Higher therefore signals weaker potency. Broadly, the half-life is how long it takes for the measured level to halve. A higher half-life goes with slow loss. One may read the AUC as the area under the concentration-time curve, a measure of exposure. Lower therefore signals low exposure.
